# Assays:
# [1] = test system: Candida spp. blood isolates; settings: 2009–2018
# Experimental: Ward of hospitalization at the time of the diagnosis, species identification and in vitro antifungal susceptibility profile (where available) were recorded. Identification of Candida isolates and susceptibility testing were performed as per hospital protocol. Annual incidence rates/100,000 inhabitants were calculated. Chi-square test for trend was used for evaluation of changes in species distribution.
# [2] = test system: C. auris clinical strains; experiment: organism not typed; format: cell-based, Candida auris; settings: range, 78 strains from patients with COVID-19
smiles,measurement,setting,value
Nc1[nH]c(=O)ncc1F [5-flucytosine],Resistance,[1],No resistance
same,MIC,[2],0.06 to 0.12 µg/mL

# Source: publication PMC8624133, “10th Trends in Medical Mycology Held on 8 to 11 October 2021, Aberdeen, Scotland, Organized by the European Confederation of Medical Mycology (ECMM)” (Journal of Fungi, 2021)
